Assay results as given in patent US12036210B2, “Heteroaryl substituted beta-hydroxyethylamines for use in treating hyperglycaemia” (ATROGI AB, priority 2017, dated 2024).
Where a name gives a salt, the structure may show the parent alone.

Legend:
[1] = test system: Intracellular cAMP levels; assay: Measurement of intracellular cAMP levels in differentiated L6 cells (alpha screen cAMP kit); format: cell-based; settings: Rattus norvegicus, L6, 0.25 h, agonist final concentration 1×10^−5 for 15 min, 1 mM IBMX, relative to isoproterenol, read-out: Biological example 2 (intracellular cAMP levels, activity compared to that of isoproterenol)
Protocol: (§1) L6-myoblasts were grown in Dulbecco's Modified Eagle's Medium (DMEM) containing 4.5 g/I glucose supplemented with 10% fetal bovine serum, 2 mM L-Glutamine, 50 U/ml penicillin, 50 μg/ml streptomycin and 10 mM HEPES. Cells were plated at 1×10^5 cells per ml in 24-well plates. After reaching 90% confluence the cells were grown in medium containing 2% FBS for 7 days where upon cells differentiated into myotubes.
Differentiated cells were serum-starved over night and stimulated with agonist, final concentration 1×10^−5, for 15 min in stimulation buffer (HBSS supplemented with 1% BSA, 5 mM HEPES and 1 mM IBMX, pH 7.4) The medium was then aspirated and to end the reaction 100 μL of 95% EtOH was added to each well of a 24-well plate and cells were kept in −20° C. over night. The EtOH was let to evaporate and 500 μL of lysis buffer (1% BSA, 5 mM HEPES and 0.3% Tween-20, pH 7.4) was added to each well before put in −80° C. for 30 min and then kept in −20° C. Intracellular cAMP levels were detected using an alpha screen cAMP kit (6760635D from Perkin Elmer). The activity for each compound is compared to that of isoproterenol.

L6-myotubes = assay: Glucose uptake (3H-2-deoxy-glucose) in differentiated L6-myotubes; format: cell-based; settings: agonist final concentration 1×10^−5, 50 nM 3H-2-deoxy-glucose, relative to isoproterenol, read-out: Biological example 1 (glucose uptake, activity compared to that of isoproterenol)
Protocol: as §1
Differentiated L6-myotubes were serum-starved over night in medium containing 0.5% fatty-acid free BSA and stimulated with agonist, final concentration 1×10^−5. After 1 h 40 min cells were washed with warm, glucose free medium or PBS and another portion of agonist was added to glucose free medium. After 20 min the cells were exposed to 50 nM ^3H-2-deoxy-glucose for another 10 min before washed in ice cold glucose free medium or PBS and lysed in 0.2 M NaOH for 1 h in 60° C.

SMILES: CCCCNC[C@H](O)c1csc(N)n1 [Example 1, (S)-1-(2-Aminothiazol-4-yl)-2-(butylamino)ethan-1-ol hydrochloride]
- Emax [1]: < 25%
- Emax (L6-myotubes): 25 to 50%

SMILES: CCCCNC[C@H](O)c1csc(C(F)(F)F)n1 [Example 2, (S)-2-(Butylamino)-1-(2-(trifluoromethyl)thiazol-4-yl)ethan-1-ol hydrochloride]
- Emax [1]: < 25%
- Emax (L6-myotubes): 25 to 50%

SMILES: CCCCNCC(O)c1ccc(=O)[nH]c1 (stereo not drawn) [Example 3, 5-(2-(Butylamino)-1-hydroxyethyl)pyridin-2(1H)-one]
- Emax [1]: < 25%
- Emax (L6-myotubes): 25 to 50%

SMILES: CCCCNCC(O)c1cc[nH]c(=O)c1 (stereo not drawn) [Example 4, 4-(2-(Butylamino)-1-hydroxyethyl)pyridin-2(1H)-one acetate]
- Emax [1]: < 25%
- Emax (L6-myotubes): 50 to 75%

SMILES: CCCCNC[C@H](O)c1ccnc(N)n1 [Example 5, (S)-1-(2-Aminopyrimidin-4-yl)-2-(butylamino)ethan-1-ol]
- Emax [1]: < 25%
- Emax (L6-myotubes): 25 to 50%

SMILES: CCCCNCC(O)c1ccncc1 (stereo not drawn) [Example 6, 2-(Butylamino)-1-(pyridin-4-yl)ethan-1-ol]
- Emax [1]: < 25%
- Emax (L6-myotubes): 25 to 50%

SMILES: CCCCNCC(O)c1cccnc1 (stereo not drawn) [Example 7, 2-(Butylamino)-1-(pyridin-3-yl)ethan-1-ol]
- Emax [1]: < 25%
- Emax (L6-myotubes): 50 to 75%

SMILES: CCCCNC[C@H](O)c1cnc(NC(=O)C(C)C)s1 [Example 8, (S)—N-(5-(2-(Butylamino)-1-hydroxyethyl)thiazol-2-yl)isobutyramide]
- Emax [1]: < 25%
- Emax (L6-myotubes): 25 to 50%

SMILES: CCCCNC[C@H](O)c1cnc(N)s1 [Example 9, (S)-1-(2-Aminothiazol-5-yl)-2-(butylamino)ethan-1-ol dihydrochloride]
- Emax [1]: < 25%
- Emax (L6-myotubes): 25 to 50%

SMILES: CCCCNC[C@H](O)c1cnc(NC(=O)C(C)C)nc1 [Example 10, (R)—N-(5-(2-(Butylamino)-1-hydroxyethyl)pyrimidin-2-yl)isobutyramide hydrochloride]
- Emax [1]: < 25%
- Emax (L6-myotubes): 50 to 75%

SMILES: CCCCNC[C@H](O)c1cnc(N)nc1 [Example 11, (R)-1-(2-Aminopyrimidin-5-yl)-2-(butylamino)ethan-1-ol]
- Emax [1]: < 25%
- Emax (L6-myotubes): 50 to 75%

SMILES: CC(C)(C)NC[C@H](O)c1ccc(O)cn1 [Example 12, (S)-6-(2-(tert-Butylamino)-1-hydroxyethyl)pyridin-3-ol]
- Emax [1]: < 25%
- Emax (L6-myotubes): 50 to 75%

SMILES: CC(C)(C)NC[C@H](O)c1cncc(O)c1 [Example 13, (R)-5-(2-(tert-Butylamino)-1-hydroxyethyl)pyridin-3-ol dihydrochloride]
- Emax [1]: < 25%
- Emax (L6-myotubes): > 75%

SMILES: CC(C)(C)NCC(O)c1ccncc1O (stereo not drawn) [Example 14, 4-(2-(tert-Butylamino)-1-hydroxyethyl)pyridin-3-ol hydrochloride]
- Emax [1]: < 25%
- Emax (L6-myotubes): > 75%

SMILES: Cn1ccc([C@@H](O)CNC(C)(C)C)cc1=O [Example 15, (R)-4-(2-(tert-Butylamino)-1-hydroxyethyl)-1-methylpyridin-2(1H)-one]
- Emax [1]: < 25%
- Emax (L6-myotubes): > 75%

SMILES: CC(C)(C)NC[C@H](O)c1ccc(F)cn1 [Example 16, (S)-2-(tert-Butylamino)-1-(5-fluoropyridin-2-yl)ethan-1-ol]
- Emax [1]: < 25%
- Emax (L6-myotubes): 50 to 75%

SMILES: CC(C)(C)NC[C@H](O)c1cncc(F)c1 [Example 17, (R)-2-(tert-Butylamino)-1-(5-fluoropyridin-3-yl)ethan-1-ol]
- Emax [1]: 25 to 50%
- Emax (L6-myotubes): > 75%

SMILES: CC(C)(C)NC[C@H](O)c1ccncc1F [Example 18, (R)-2-(tert-Butylamino)-1-(3-fluoropyridin-4-yl)ethan-1-ol]
- Emax [1]: < 25%
- Emax (L6-myotubes): 25 to 50%

SMILES: CC(C)(C)NC[C@H](O)c1cncc(Cl)c1 [Example 19, (R)-2-(tert-Butylamino)-1-(5-chloropyridin-3-yl)ethan-1-ol]
- Emax [1]: < 25%
- Emax (L6-myotubes): > 75%

SMILES: CC(C)(C)NC[C@H](O)c1ncccc1Cl [Example 20, (S)-2-(tert-Butylamino)-1-(3-chloropyridin-2-yl)ethan-1-ol dihydrochloride]
- Emax [1]: < 25%
- Emax (L6-myotubes): 25 to 50%

SMILES: CC(C)(C)NC[C@H](O)c1ccc(Cl)cn1 [Example 21, (S)-2-(tert-Butylamino)-1-(5-chloropyridin-2-yl)ethan-1-ol dihydrochloride]
- Emax [1]: < 25%
- Emax (L6-myotubes): 25 to 50%
